Data: patent publication US5728580A, “Methods and culture media for inducing single cell suspension in insect cell lines” (Cornell Research Foundation, Inc., priority 1996, dated 1998)

Tests used:
TN5B1-4 cells [1] = assay: Inducing single-cell formation of clumped TN5B1-4 cells in suspension culture; type: cell-based, Trichoplusia ni; settings: for Inducing single-cell formation / dispersing clumped cells (in words): clumped suspension culture; for Inducing single-cell formation / dispersing clumped cells (in words) / Concentration adequate to maintain single-cell suspension: serum-free medium
[2] = test system: AcMNPV binding to TN5B1-4 cells; assay: Binding of [3H]thymidine-labeled AcMNPV budded virus to TN5B1-4 cells; type: cell-based; settings: for Virus Binding: 30 min; for Binding, A. Binding in Presence of Polyanions: 5 × 10^6 cells/ml for 30 min, control is binding in absence of polyanion; for Binding, C. Pretreatment of Cells: cells pretreated 3 h, washed once, control is untreated cells; for Binding, C. Pretreatment of Cells / Binding, B. Pretreatment of Virus: binding 1 h without polymer; for Binding, B. Pretreatment of Virus: virus pretreated 2 h, pelleted, control is untreated virus
[3] = test system: AcMNPV infection of TN5B1-4 cells; settings: cited from earlier work
TN5B1-4 cells [4] = settings: for Toxic above this level: tn5b1-4 cells
Experimental: Three different molecular weights of dextran sulfate, derived from dextran of MW 5000, 20000, 500000, were evaluated.
Compounds were evaluated for their ability to induce single cell suspension in 50-ml spinner flasks at 160 rpm. Control cells were passaged at least 10 times in suspension before they were used in any experiments. […] A qualitative score for reduction in clumping relative to control cells was assigned to cells grown in the presence of test compound at the end of the third passage. The protocol for enzyme treatment was the same, but the seeding density was 1×10^6 cells/ml and cells were evaluated after 24 h.

[5] = test system: AcMNPV infection of TN5B1-4 cells; assay: Viral infection inhibition in TN5B1-4 (cell growth post-infection); type: cell-based; settings: at concentrations required to induce and maintain single-cell suspension; MOI 0.1 to 20
Experimental: (§1) The inhibition of binding was further explored by considering the effect of increasing polyanion concentration on the binding of virus to TN5B1-4 and SF21. Less than 20 μg/ml of both dextran sulfate and heparin were required to attain maximum inhibition. […] Dextran sulfate reduced the binding of the virus to TN5B1-4 but not to SF21. […] The cell growth post-infection was used as a measure of virus infection since infection is known to inhibit cell division. Hereafter, synchronous infection is used to refer to infection with no measurable cell division post-infection.
The cells were infected at MOI of 0.1, 0.5, 1, 5, 10, and 20 to determine the lowest MOI for synchoronous infection.

[6] = test system: AcMNPV binding to SF21 cells; assay: Binding of AcMNPV virus to SF21 cells; type: cell-based
Experimental: as §1

[7] = test system: AcMNPV infection of SF21 cells; assay: Viral infection inhibition in SF21; type: cell-based
Experimental: as §1

TN5B1-4 cells [8] = assay: Growth kinetics of TN5B1-4 cells in spinner flasks; type: cell-based, Trichoplusia ni; design: dose or concentration left out as unconfirmed
Experimental: TN5B1-4 suspension cells were grown in 50-ml spinner flasks (Bellco Glass, Vineland, N.J.) with a working volume of 40 ml at 160 rpm. SF21 cells were grown in similar vessels at 130 rpm in Ex-Cell 400 medium. The screw caps of the flasks were replaced with silicone foam closures for better oxygen transfer. Cells were passaged every 3 days.
The growth of TN5B1-4 DS 5000 cells in suspension was scaled-up to a 1.25 L Celligen reactor agitated with a marine impeller at 90 rpm. The cells were subcultured three times in this reactor with no clump formation. The doubling time was 20 h and a maximum density of 6-7×10^6 cells/ml was reached.

[9] = 100 μg/ml, control = binding of virus to cells with no additive
[10] = 1000 μg/ml, control = binding of virus to cells with no additive
[11] = 25 μg/ml, control = binding of virus to cells with no additive

In the case of DEAE-dextran [DEAE dextran], the “Inducing single-cell formation / dispersing clumped cells (in words)” value (TN5B1-4 cells [1]) is reported as “ineffective” and the “Virus Binding” value ([2]; 5 μg/ml, control = binding of virus to cells with no additive) is reported as 74 ± 9 % of Control.
In the case of Heparin, the “Fold higher concentration required to induce single-cell suspension relative to dextran sulfate” value (TN5B1-4 cells [1]) is given as 20 fold, the “Inhibition of viral infection (as known)” value [3] is given as “known to seriously inhibit infection” and the “Concentration required to attain maximum inhibition of virus binding (threshold value)” value [2] is given as “Less than 20 μg/ml”. For the same substance, the “Virus Binding” value [2, 9] was 63 ± 3 % of Control.
With Pluronic F68 the “Inducing single-cell formation / dispersing clumped cells (in words)” value (TN5B1-4 cells [1]) was “ineffective” and the “Virus Binding” value [2, 10] was 98 ± 2 % of Control.
For “chondroitin disaccharides [Chondroitin sulfate disaccharides]”, the “Inducing single-cell formation / dispersing clumped cells (in words)” value (TN5B1-4 cells [1]) was “did not disperse clumped cells” and the “Virus Binding” value [2, 9] was 99 ± 6 % of Control.
For chondroitin sulfate, the “Virus Binding” value [2, 9] was 94 ± 3 % of Control.
With dermatan sulfate the “Virus Binding” value [2, 9] was 65 ± 7 % of Control.
For dextran, the “Inducing single-cell formation / dispersing clumped cells (in words)” value (TN5B1-4 cells [1]) was “ineffective”, the “Virus Binding” value [2, 9] was 97 ± 2 % of Control and the “Virus Binding” value ([2]; 100 μg/ml, polymer of MW 580 kd, control = no additive) was 99 ± 3 % of Control.
With “dextran sulfate [dextran sulfate 500000]” the “Toxic above this level” value (TN5B1-4 cells [4]) was “above 5 μg/ml”.
In the case of dextran sulfate [dextran sulfate II], the “Virus Binding” value [2, 11] is reported as 82 ± 4 % of Control.
For dextran sulfate [dextran sulfate I], the “Inhibition of viral infection” value [5] was “not severely inhibited”, the “Effect on binding of virus to SF21” value [6] was “did not affect binding” and the “Inhibition of viral infection in SF21” value [7] was “inhibited infection”. For the same substance, the “Toxic at concentrations greater than” value (TN5B1-4 cells [4]) was “greater than 0.1%”, the “Inducing single-cell formation in serum-containing media” value (TN5B1-4 cells [1]; serum-containing media, up to 300 μg/ml) was “complete elimination of clumping was not possible” and the “Concentration adequate to maintain single-cell suspension” value (“Concentration adequate” below) (TN5B1-4 cells [1]) was 25 µg/mL. For the same substance, the “Concentration required to attain maximum inhibition of virus binding (threshold value)” value [2] was “Less than 20 μg/ml”, the “Binding, A. Binding in Presence of Polyanions” value (“Binding, A. Binding in Presence” below) ([2]; 25 μg/ml) was 42 ± 2 % of control and the “Virus Binding” value [2, 11] was 42 ± 2 % of Control. For the same substance, the “Binding, C. Pretreatment of Cells” value ([2]; 25 μg/ml) was 93 ± 9 % of control, the “Binding, B. Pretreatment of Virus” value ([2]; 25 μg/ml) was 103 ± 3 % of control and the “Reduction of the attachment rate constant” value ([2]; at concentration required to maintain single-cell suspension) was “six-fold”. For the same substance, the “Effect on doubling time and maximum cell density” value (TN5B1-4 cells [8]) was “does not affect”.
For fructose 6-phosphate, the “Inducing single-cell formation / dispersing clumped cells (in words)” value (TN5B1-4 cells [1]) was “ineffective”.
In the case of fucoidan sulfate, the “Virus Binding” value [2, 11] is reported as 53 ± 1 % of Control and the “Virus Binding” value [2, 9] is reported as 53 ± 1 % of Control.
In the case of glucose 6-phosphate, the “Inducing single-cell formation / dispersing clumped cells (in words)” value (TN5B1-4 cells [1]) is reported as “ineffective”.
For heparin disaccharides, the “Virus Binding” value [2, 9] was 103 ± 2 % of Control.
For hyaluronate, the “Inducing single-cell formation / dispersing clumped cells (in words)” value (TN5B1-4 cells [1]) was “did not induce single-cell formation” and the “Virus Binding” value [2, 9] was 99 ± 1 % of Control.
In the case of pentosan sulfate, the “Inhibition of viral infection” value [5] is reported as “not severely inhibited”, the “Concentration adequate” value (TN5B1-4 cells [1]) is reported as 100 µg/mL and the “Virus Binding” value [2, 11] is reported as 53 ± 3 % of Control. For the same substance, the “Binding, A. Binding in Presence” value ([2]; 100 μg/ml) was 55 ± 9 % of control, the “Virus Binding” value [2, 9] was 55 ± 9 % of Control and the “Binding, C. Pretreatment of Cells” value ([2]; 100 μg/ml) was 96 ± 7 % of control. For the same substance, the “Binding, B. Pretreatment of Virus” value ([2]; 100 μg/ml) was 99 ± 4 % of control.
In the case of polyphosphate, the “Inducing single-cell formation / dispersing clumped cells (in words)” value (TN5B1-4 cells [1]) is reported as “did not induce single-cell formation”.
With polyvinyl sulfate the “Inhibition of viral infection” value [5] was “inhibited viral infection even at high MOI”, the “Inducing single-cell formation / dispersing clumped cells (in words)” value (TN5B1-4 cells [1]) was “as effective as dextran sulfate” and the “Concentration adequate” value (TN5B1-4 cells [1]) was 25 µg/mL. For the same substance, the “Virus Binding” value ([2]; 10 μg/ml, control = binding of virus to cells with no additive) was 52 ± 4 % of Control, the “Binding, A. Binding in Presence” value ([2]; 25 μg/ml) was 52 ± 4 % of control and the “Virus Binding” value [2, 11] was 52 ± 1 % of Control. For the same substance, the “Binding, C. Pretreatment of Cells” value ([2]; 25 μg/ml) was 95 ± 6 % of control and the “Binding, B. Pretreatment of Virus” value ([2]; 25 μg/ml) was 96 ± 5 % of control.
For protamine sulfate, the “Inducing single-cell formation / dispersing clumped cells (in words)” value (TN5B1-4 cells [1]) was “ineffective” and the “Virus Binding” value ([2]; 50 μg/ml, control = binding of virus to cells with no additive) was “virus ppt”.
In the case of “sodium carboxymethylcellulose [sodium CMC]”, the “Inducing single-cell formation / dispersing clumped cells (in words)” value (TN5B1-4 cells [1]) is reported as “did not induce single-cell formation” and the “Virus Binding” value [2, 10] is reported as 107 ± 1 % of Control.
With sodium polyphosphoric acid the “Inducing single-cell formation / dispersing clumped cells (in words)” value (TN5B1-4 cells [1]) was “did not induce single-cell formation” and the “Virus Binding” value [2, 9] was 98 ± 1 % of Control.
In the case of κ-carrageenan, the “Virus Binding” value [2, 9] is reported as 73 ± 6 % of Control.
With λ-carrageenan the “Toxic above this level” value (TN5B1-4 cells [4]) was greater than 25 µg/mL and the “Virus Binding” value [2, 11] was 68 ± 3 % of Control.
